Measurements: patent publication US10799507B2, “5-(7H-pyrrolo[2,3-d]pyrimidin-4-yl)-5-azaspiro[2.5]octane-8-carboxylic acid derivatives as novel JAK kinase inhibitors” (LEO Pharma A/S, priority 2017, dated 2020)

Legend:
[1] = in vitro metabolic stability in human liver microsomes; format: in vitro ADME; conditions: human, liver microsomes, 0.5 μM compound, 0.5 mg/mL microsomes, NADPH, 40 min, 37° C.; read-out: Human liver microsome Clapp (apparent intrinsic clearance)
Description: To assess the in vitro metabolic stability, the compounds (0.5 μM) were incubated in duplicates with human liver microsomes (0.5 mg/mL) in phosphate buffer and NADPH, in 96-well plates for 40 min (37° C.), using a liquid handling robot (Hamilton Microlab Star). Sample aliquots were taken at 0, 5, 10, 20 and 40 min, and dispensed into cold acetonitrile, in order to stop the reactions. The plates were centrifuged for 30 minutes before the samples were analyzed using liquid chromatography coupled to a time-of-flight mass spectrometer (AB Sciex API5600). The compound depletion over time was used to estimate the elimination rate constant, from which the apparent intrinsic clearance, Clapp, was calculated and the values are listed in Table 2.

[2] = target: JAK2 (Homo sapiens (Human), UniProt O60674); assay: JAK kinase assay (HTRF), JAK2; format: biochemical; conditions: catalytic domain, ATP at Km (4 μM)
Method in brief: (§1)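 Catalytic-domain human JAK1 (GST-tagged, aa 850-1154) or His-tagged JAK2, baculovirus-expressed, phosphorylated 1 µM biotinylated TK peptide at Km ATP (JAK1 7 µM, 10 mM MgCl2, 50 nM SEB; JAK2 4 µM, 5 mM MgCl2) in pH 7.0 Hepes, 20-30 min RT. EDTA stop; overnight streptavidin-XL665/cryptate HTRF read.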

[3] = target: JAK1 (Homo sapiens (Human), UniProt P23458); assay: JAK kinase assay (HTRF), JAK1; format: biochemical; conditions: catalytic domain, ATP at Km (7 μM)
Method in brief: as §1

[4] = target: JAK3 (Homo sapiens (Human), UniProt P52333); assay: JAK kinase assay (HTRF), JAK3; format: biochemical; conditions: catalytic domain, ATP at Km (2 μM)
Method in brief: (§2)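 Catalytic-domain human kinases, GST-tagged TYK2 (aa 871-1187) and His-tagged JAK3, phosphorylate 1 μM TK Substrate-Biotin for 20-30 min at RT in 50 mM Hepes pH 7.0, 5 mM MgCl2, ATP at Km (TYK2 13 μM with 50 nM SEB; JAK3 2 μM). Phosphorylation detected by HTRF.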

[5] = target: TYK2 (Homo sapiens (Human), UniProt P29597); assay: JAK kinase assay (HTRF), TYK2; format: biochemical; conditions: catalytic domain, ATP at Km (13 μM)
Method in brief: as §2

JAK1, sequence (P23458 850-1154): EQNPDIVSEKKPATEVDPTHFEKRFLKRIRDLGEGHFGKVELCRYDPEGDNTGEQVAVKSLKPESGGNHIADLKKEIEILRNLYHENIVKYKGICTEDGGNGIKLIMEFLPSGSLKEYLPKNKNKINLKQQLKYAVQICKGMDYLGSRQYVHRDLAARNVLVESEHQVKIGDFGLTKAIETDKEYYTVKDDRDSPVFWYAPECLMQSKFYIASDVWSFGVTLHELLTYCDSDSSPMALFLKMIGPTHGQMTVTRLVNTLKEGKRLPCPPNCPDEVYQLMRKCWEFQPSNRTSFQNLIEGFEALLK
TYK2, sequence (P29597 871-1187): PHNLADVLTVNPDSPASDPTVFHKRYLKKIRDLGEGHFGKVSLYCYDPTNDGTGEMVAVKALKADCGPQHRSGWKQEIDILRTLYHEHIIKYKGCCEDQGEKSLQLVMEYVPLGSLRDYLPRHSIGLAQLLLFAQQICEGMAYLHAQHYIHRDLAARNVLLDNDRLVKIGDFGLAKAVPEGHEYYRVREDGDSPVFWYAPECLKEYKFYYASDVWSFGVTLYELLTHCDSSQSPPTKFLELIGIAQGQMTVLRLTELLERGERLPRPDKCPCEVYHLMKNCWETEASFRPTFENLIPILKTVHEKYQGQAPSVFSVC
JAK2, sequence (O60674 849-1124): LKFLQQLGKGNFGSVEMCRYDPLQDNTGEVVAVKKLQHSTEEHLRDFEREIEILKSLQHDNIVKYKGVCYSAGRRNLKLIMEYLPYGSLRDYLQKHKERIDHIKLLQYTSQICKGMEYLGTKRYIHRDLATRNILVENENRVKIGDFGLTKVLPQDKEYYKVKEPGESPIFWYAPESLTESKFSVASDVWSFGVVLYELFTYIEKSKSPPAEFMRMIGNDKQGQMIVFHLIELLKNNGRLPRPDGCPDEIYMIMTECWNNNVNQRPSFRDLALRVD
JAK3, sequence (P52333 822-1111): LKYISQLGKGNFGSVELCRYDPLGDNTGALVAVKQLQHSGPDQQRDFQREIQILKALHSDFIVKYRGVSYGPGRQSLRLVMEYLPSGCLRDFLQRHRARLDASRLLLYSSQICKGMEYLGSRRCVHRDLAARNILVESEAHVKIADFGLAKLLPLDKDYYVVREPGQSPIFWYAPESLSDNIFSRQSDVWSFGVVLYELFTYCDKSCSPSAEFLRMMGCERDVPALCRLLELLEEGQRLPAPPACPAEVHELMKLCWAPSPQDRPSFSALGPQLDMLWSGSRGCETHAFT

| SMILES | CLint scaled at 0.5 μM [1] [mL/min/kg] | EC50 [2] [nM] | EC50 [3] [nM] | EC50 [4] [nM] | EC50 [5] [nM] |
| --- | --- | --- | --- | --- | --- |
| O=C(N[C@@H](CO)[C@@H](O)c1ccc(F)cc1)[C@H]1CCN(c2ncnc3[nH]ccc23)CC12CC2 [Example 9, (8S)-N-[(1S,2S)-2-(4-fluorophenyl)-2-hydroxy-1-(hydroxymethyl)ethyl]-5-(7H-pyrrolo[2,3-d]pyrimidin-4-yl)-5-azaspiro[2.5]octane-8-carboxamide] | > 200 | 1.6 | 0.7 | 7 | 7.7 |
| Cc1cc([C@H](O)CNC(=O)[C@H]2CCN(c3ncnc4[nH]ccc34)CC23CC3)ncc1F [Example 44, (8S)-N-[(2R)-2-(5-fluoro-4-methyl-2-pyridyl)-2-hydroxy-ethyl]-5-(7H-pyrrolo[2,3-d]pyrimidin-4-yl)-5-azaspiro[2.5]octane-8-carboxamide] | > 200 | 15.8 | 3.1 | 68.5 | 63.2 |
| O=C(NC[C@H](O)C1CCOCC1)[C@H]1CCN(c2ncnc3[nH]ccc23)CC12CC2 [Example 10, (8S)-N-[(2R)-2-hydroxy-2-tetrahydropyran-4-yl-ethyl]-5-(7H-pyrrolo[2,3-d]pyrimidin-4-yl)-5-azaspiro[2.5]octane-8-carboxamide] | 28 | 2.9 | 0.8 | 11.7 | 10.8 |
| O=C(N[C@H](CO)C(=O)OCC1CC(F)(F)C1)[C@H]1CCN(c2ncnc3[nH]ccc23)CC12CC2 [Example 42, (3,3-difluorocyclobutyl)methyl (2R)-3-hydroxy-2-[[(8S)-5-(7H-pyrrolo[2,3-d]pyrimidin-4-yl)-5-azaspiro[2.5]octane-8-carbonyl]amino]propanoate] | > 200 | 6.7 | 2.7 | 20.2 | 51.3 |
| O=C(NCc1ccccc1)C1CCN(c2ncnc3[nH]ccc23)CC12CC2 (stereo not drawn) [Example 95, N-benzyl-5-(7H-pyrrolo[2,3-d]pyrimidin-4-yl)-5-azaspiro[2.5]octane-8-carboxamide] | 135 | 17.9 | 8.6 | 31.6 | 502 |
| O=C(N[C@@H](CO)C1CCCCC1)[C@H]1CCN(c2ncnc3[nH]ccc23)CC12CC2 [Example 24, (8S)-N-[(1R)-1-cyclohexyl-2-hydroxy-ethyl]-5-(7H-pyrrolo[2,3-d]pyrimidin-4-yl)-5-azaspiro[2.5]octane-8-carboxamide] | 159 | 2.7 | 1.3 | 10.9 | 19.9 |
| C[C@H](NC(=O)C1CCN(c2ncnc3[nH]ccc23)CC12CC2)c1cccc(C#N)c1 (stereo partly drawn) [Example 86, N-[(1S)-1-(3-cyanophenyl)ethyl]-5-(7H-pyrrolo[2,3-d]pyrimidin-4-yl)-5-azaspiro[2.5]octane-8-carboxamide] | > 200 | 11.3 | 7.1 | 38 | 47.7 |
| O=C(NC[C@@H](O)C1CCCC1)[C@H]1CCN(c2ncnc3[nH]ccc23)CC12CC2 [Example 32, (8S)-N-[(2S)-2-cyclopentyl-2-hydroxy-ethyl]-5-(7H-pyrrolo[2,3-d]pyrimidin-4-yl)-5-azaspiro[2.5]octane-8-carboxamide] | 159 | 5.2 | 1.8 | 8.3 | 25.4 |
| O=C(NC[C@@H](O)c1ccccc1)[C@H]1CCN(c2ncnc3[nH]ccc23)CC12CC2 [Example 51, (8S)-N-[(2S)-2-hydroxy-2-phenyl-ethyl]-5-(7H-pyrrolo[2,3-d]pyrimidin-4-yl)-5-azaspiro[2.5]octane-8-carboxamide] | > 200 | 11.3 | 3.5 | 49.2 | 40.5 |
| O=C(NC[C@@H](O)c1ccccc1)C1CCN(c2ncnc3[nH]ccc23)CC12CC2 (stereo partly drawn) [Example 63, N-[(2S)-2-hydroxy-2-phenyl-ethyl]-5-(7H-pyrrolo[2,3-d]pyrimidin-4-yl)-5-azaspiro[2.5]octane-8-carboxamide] | > 200 | 15.9 | 4.5 | 58.5 | 147 |
| C[C@H](NC(=O)[C@H]1CCN(c2ncnc3[nH]ccc23)CC12CC2)[C@@H](O)C1CCCCC1 [Example 3, (8S)-N-[(1S,2S)-2-cyclohexyl-2-hydroxy-1-methyl-ethyl]-5-(7H-pyrrolo[2,3-d]pyrimidin-4-yl)-5-azaspiro[2.5]octane-8-carboxamide] | > 200 | 1.1 | 0.5 | 3.4 | 6.2 |
| O=C(N[C@@H](CO)c1ccccc1)C1CCN(c2ncnc3[nH]ccc23)CC12CC2 (stereo partly drawn) [Example 69, N-[(1R)-2-hydroxy-1-phenyl-ethyl]-5-(7H-pyrrolo[2,3-d]pyrimidin-4-yl)-5-azaspiro[2.5]octane-8-carboxamide] | 44 | 12 | 5.1 | 29.1 | 298 |
| O=C(N[C@@H](CO)[C@H](O)c1ccc(F)cn1)[C@H]1CCN(c2ncnc3[nH]ccc23)CC12CC2 (single isomer, unassigned) [Example 30] | 50 | 2.4 | 1.4 | 27.1 | 30.5 |
| O=C(NCC1CC(F)(F)C1)[C@H]1CCN(c2ncnc3[nH]ccc23)CC12CC2 [Example 62, (8S)-N-[(3,3-difluorocyclobutyl)methyl]-5-(7H-pyrrolo[2,3-d]pyrimidin-4-yl)-5-azaspiro[2.5]octane-8-carboxamide] | 48 | 7 | 4.5 | 15.7 | 47.5 |
| O=C(NC[C@H](O)C1CCCC1)[C@H]1CCN(c2ncnc3[nH]ccc23)CC12CC2 [Example 11, (8S)-N-[(2R)-2-cyclopentyl-2-hydroxy-ethyl]-5-(7H-pyrrolo[2,3-d]pyrimidin-4-yl)-5-azaspiro[2.5]octane-8-carboxamide] | 148 | 2.1 | 0.8 | 6.7 | 18.2 |
| N#Cc1ccc(CNC(=O)[C@H]2CCN(c3ncnc4[nH]ccc34)CC23CC3)cc1 [Example 13, (8S)-N-[(4-cyanophenyl)methyl]-5-(7H-pyrrolo[2,3-d]pyrimidin-4-yl)-5-azaspiro[2.5]octane-8-carboxamide] | 82 | 6.1 | 0.9 | 8.9 | 81.1 |
| N#Cc1ccc([C@H](CO)NC(=O)[C@H]2CCN(c3ncnc4[nH]ccc34)CC23CC3)cc1 [Example 18, (8S)-N-[(1R)-1-(4-cyanophenyl)-2-hydroxy-ethyl]-5-(7H-pyrrolo[2,3-d]pyrimidin-4-yl)-5-azaspiro[2.5]octane-8-carboxamide] | 44 | 3.5 | 1 | 7.5 | 45.5 |
| O=C(N[C@@H](CO)[C@H](O)c1ccc(F)cc1)[C@H]1CCN(c2ncnc3[nH]ccc23)CC12CC2 [Example 50, (8S)-N-[(1S,2R)-2-(4-fluorophenyl)-2-hydroxy-1-(hydroxymethyl)ethyl]-5-(7H-pyrrolo[2,3-d]pyrimidin-4-yl)-5-azaspiro[2.5]octane-8-carboxamide] | 109 | 7 | 3.5 | 22.7 | 53.2 |
